Molecular target: Acetylcholinesterase (Homo sapiens, UniProt P22303)
Assay: Inhibition of human AChE

Chain of Acetylcholinesterase (P22303 whole entry): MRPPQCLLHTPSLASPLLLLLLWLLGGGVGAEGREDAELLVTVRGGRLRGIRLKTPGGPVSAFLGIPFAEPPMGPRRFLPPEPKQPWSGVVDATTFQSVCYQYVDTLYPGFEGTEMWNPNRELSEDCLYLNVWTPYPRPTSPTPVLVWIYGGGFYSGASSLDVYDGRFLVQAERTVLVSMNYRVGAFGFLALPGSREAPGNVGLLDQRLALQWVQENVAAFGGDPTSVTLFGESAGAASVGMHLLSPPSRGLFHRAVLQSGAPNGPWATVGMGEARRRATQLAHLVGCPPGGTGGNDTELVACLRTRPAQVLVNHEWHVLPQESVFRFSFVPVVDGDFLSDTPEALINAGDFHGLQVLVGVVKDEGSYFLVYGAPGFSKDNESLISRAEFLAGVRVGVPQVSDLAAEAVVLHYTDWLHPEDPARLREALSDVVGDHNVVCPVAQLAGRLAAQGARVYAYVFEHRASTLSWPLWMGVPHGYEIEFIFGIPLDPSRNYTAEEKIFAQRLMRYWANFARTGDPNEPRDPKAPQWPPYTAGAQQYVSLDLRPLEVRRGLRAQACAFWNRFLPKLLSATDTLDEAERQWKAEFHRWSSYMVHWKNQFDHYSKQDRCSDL

First: COc1ccc(-c2cc3c(c(=O)o2)C[C@H]2[C@@](C)(CC[C@@]4(O)C(C)(C)C(=O)CC[C@]24C)O3)cc1
Second: COc1ccc(-c2cc3c(c(=O)o2)C[C@H]2[C@@](C)(CC[C@@]4(O)C(C)(C)[C@H](O)CC[C@]24C)O3)cc1
The IC50 of the first is lower: 2500 nM for the first, greater than 100000 nM for the second.

Compared with `COc1ccc(-c2cc3c(c(=O)o2)C[C@]2(O)[C@@]4(C)CC[C@@H](OC(C)=O)C(C)(C)[C@]4(O)CC[C@@]2(C)O3)cc1`, `COc1ccc(-c2cc3c(c(=O)o2)C[C@]2(O)[C@@]4(C)[C@@H](O)C[C@@H](OC(C)=O)C(C)(C)[C@]4(O)CC[C@@]2(C)O3)cc1` is higher in IC50: 3500 nM for the first, greater than 100000 nM for the second.

`COc1ccc(-c2cc3c(c(=O)o2)C[C@@H]2[C@@]4(C)CCC(=O)C(C)(C)[C@@H]4CC[C@@]2(C)O3)cc1` and `COc1ccc(-c2cc3c(c(=O)o2)C[C@@H]2[C@@]4(C)CC[C@H](O)C(C)(C)[C@@H]4CC[C@@]2(C)O3)cc1` cannot be ordered by IC50: greater than 100000 nM for the first, greater than 100000 nM for the second.

`COc1cc(-c2cc3c(c(=O)o2)C[C@]2(O)[C@@]4(C)C(=O)C=CC(C)(C)[C@]4(O)CC[C@@]2(C)O3)cc(OC)c1OC` [TERRITREM B] and `COc1cc(-c2cc3c(c(=O)o2)C[C@]2(O)[C@@]4(C)C(=O)C=CC(C)(C)[C@]4(O)CC[C@@]2(C)O3)cc(OC)c1O` are within 1.5-fold of each other in IC50: 7.6 nM for the first, 6.8 nM for the second.
